{
  "source": "patent US10682386B2",
  "about": "“Compositions for prevention of adhesions and other barrier applications” (Arch Biosurgery, Inc., priority 2006, dated 2020)",
  "key": {"[1]": {"tested_on": "branch of the superior sagittal sinus in the brains", "assay": "Transection of a branch of the superior sagittal sinus in the brain, hemostasis", "assay_type": "in vivo, rats", "procedure": "(§1) Animals were anesthetized with an i.p. injection of ketamine (80 mg/kg) and xylazine (8 mg/kg). All surgical procedures were conducted under an operating microscope. Twenty-two animals, including 10 adult hamsters and 12 young adult female Spraque-Dawley rats (200-250 g), were treated with either iced saline or 20 μl of a 1% peptide solution at the site of the sinus branch transection. The material was prepared by dissolving RADA 16-1 (n-RADARADARADARADA-c; SEQ ID NO: 1) peptide in sterile water, and the peptide-containing solution was applied to the injured tissue with a 31 gauge needle attached to a 2 cc syringe.\n(§2) The experiment was videotaped with a time stamp and was replayed one frame at a time to evaluate the length of time required for the peptide solution to form a gel, which effectively impeded bleeding. Hemostasis was assessed visually, and “complete hemostasis” was defined as the complete lack of movement of blood from the wound site.\nDurations were measured from the start of application of peptide solution to the completion of hemostasis after transection of the veins leading to the sinus in the brains of adult rats. […] In the saline controls, cessation of bleeding was never achieved. The saline control experiment was terminated at the same time point in order to prevent the animals from bleeding to death."}, "[2]": {"tested_on": "branch of the superior sagittal sinus in the brains", "assay": "Transection of a branch of the superior sagittal sinus in the brain, hemostasis", "assay_type": "in vivo", "details": "hamsters; 20 μl of a 1% peptide solution at the site of the sinus branch transection; all cases", "procedure": "as §1, §2"}, "superior sagittal sinus": {"tested_on": "superior sagittal sinus", "assay": "Complete transection of the superior sagittal sinus, hemostasis", "assay_type": "in vivo", "details": "control animals that continued to bleed after 20 seconds", "excerpt": "A higher concentration of peptide (e.g., approximately 3%-4%) was used in the latter experiment in order to achieve hemostasis. The three saline control cases continued to bleed after 20 seconds."}, "femoral artery": {"tested_on": "femoral artery", "assay": "Femoral artery transection, hemostasis", "assay_type": "in vivo, adult rats", "procedure": "The sciatic nerve and the adjacent femoral artery were exposed in adult rats, and the femoral artery was transected. Twelve rats were treated by application of 20 μl of a 1% solution of RADA 16-I (SEQ ID NO: 1) peptide to the site of transection using a glass pipette attached to a syringe body, while controls were treated by applying cold saline to the site of transection. […] The saline control cases continued to bleed until the experiment was terminated at 110 seconds.\nA series of pictures was taken in an adult rat in which the femoral artery was transected. In the picture taken first, the sciatic nerve and the femoral artery are exposed. […] The assembled material can be suctioned off the site easily if desired."}, "spinotrapezius muscles": {"tested_on": "spinotrapezius muscles", "assay": "Muscle trauma, cut in spinotrapezius muscle on the back, hemostasis", "assay_type": "in vivo, rat", "details": "1% peptide solution applied in deep cut, 1-2 cm incisions", "excerpt": "The spinotrapezius muscles on the back of the rats were exposed and a deep cut was made in the muscle, after which 1% peptide solution (RADA16-I) (SEQ ID NO: 1) was applied in the cut. Within 10 seconds, all bleeding had stopped. With the application of iced saline alone, control animals continued to bleed after 20 seconds."}, "[3]": {"tested_on": "muscle of the hind limb (porteocaudalis and musculus tibialis cranialis)", "assay": "Muscle trauma, hind limb muscle and limb wounds, hemostasis", "assay_type": "in vivo, rat", "excerpt": "The spinotrapezius muscles on the back of the rats were exposed and a deep cut was made in the muscle, after which 1% peptide solution (RADA16-I) (SEQ ID NO: 1) was applied in the cut. Within 10 seconds, all bleeding had stopped. With the application of iced saline alone, control animals continued to bleed after 20 seconds. […] However when an artery or vein was transected 2% or higher material was needed to bring about hemostasis. […]"}, "[4]": {"tested_on": "liver, lobus sinister lateralis", "assay": "Liver cut, rostral to caudal, vessel of relatively low pressure, hemostasis", "assay_type": "in vivo, adult rat", "details": "1% peptide solution applied topically and in the cut", "excerpt": "Profuse bleeding ensued. A 1% peptide solution (RADA16-1) (SEQ ID NO: 1) was applied to the cut and in its vicinity using a 27 gauge needle and 4 cc syringe. All bleeding stopped within 10 seconds. A series of pictures was obtained. […] After treating the site with 1% peptide solution (applied topically and in the cut), all bleeding stopped within 10 seconds. A clear area was observed between the two halves of the lobus sinister lateralis. This procedure was repeated several times with the same result."}, "[5]": {"tested_on": "liver, lobus sinister lateralis and a major branch of the portal vein", "assay": "Liver transverse cut with major branch of the portal vein, higher pressure, hemostasis", "assay_type": "in vivo, rat", "procedure": "A series of pictures illustrate the experiment. […] The cut was treated with 4% peptide solution applied topically and in the cut. All bleeding stopped within 10 seconds. […] Thus, application of 4% peptide solution brings about complete hemostasis in a high pressure bleeding environment in less than 10 seconds. […] This procedure was repeated several times with the same result."}, "[6]": {"tested_on": "lobus sinistras laterialis of the liver", "assay": "Removal of ¼ of the liver lobe, topical treatment of the margin, hemostasis", "assay_type": "in vivo", "procedure": "In other experiments ¼ of the lobe in the lower right quadrant of the lobus sinistras laterialis was removed, and the margin was treated with a topical application of 2% peptide (RADA16-I) (SEQ ID NO: 1) to the site of injury. Bleeding stopped in less than 10 seconds."}, "liver": {"tested_on": "liver", "assay": "4 mm liver punch biopsy, adhesions", "assay_type": "in vivo, adult rats", "details": "punch filled with 3%; survival 2 d, 7 d, 14 d, 6 w, 8 w", "procedure": "The liver of 18 adult rats was exposed under deep anesthesia, the upper right lobe was punched by a 4 mm punch, then the wound was treated with 3% NHS-1. Animals were allowed to survive 2 d, 7 d, 14 d, 6 w, and 8 w respectively, then the animals were anesthetized again and the punched lobe of liver was dissected and processed for H&E staining. In addition a set of controls were treated with either saline or cautery. 4 mm liver punch biopsy experiment with control and filling of punch with 3% RADA. All of the controls had adhesions on both surfaces while the treated had no adhesions. In the 2 week, 6 week and 8 week controls adhesions were cut away on the upper and lower surfaces. On all the 3% RADA treated cases there were no adhesions on with the upper or lower surface of the liver."}, "[7]": {"tested_on": "intestine at the level of the duodenum", "assay": "Perforation of the intestine at the level of the duodenum, leakage of gastric fluid", "assay_type": "in vivo, adult rat", "procedure": "An additional volume of 2% peptide solution was injected into the duodenum at the level of the injury. […] In the control cut at the level of the duodenum, the wall of the intestine inverted and gastric fluids continued to leak from the site of injury when left untreated."}, "[8]": {"tested_on": "skin and subcutaneous tissue", "assay": "4 mm punch biopsy of skin and subcutaneous tissue, healing test", "assay_type": "in vivo", "procedure": "The regions from which the biopsies were taken were either treated by a single application of self-assembling peptide (RADA16-I) (SEQ ID NO: 1) solution or were left untreated. The wounds were left unbandaged. A series of pictures of a 4 mm punch biopsy healing test in which injured animals were treated with the self assembling peptide and compared to matching cases with no treatment illustrates the results. The wounds were photographed on day 0, day 1, day 4, and day 7. […] Treatment with the peptide appeared to speed healing by as much as 5 days in some cases."}},
  "data": [
    {"substance": "n-RADARADARADARADA-c [RADA16-I]", "values": [
      {"measurement": "hemostasis five seconds after the peptide solution was applied", "setting": "[1]; adult rat, one of the veins of the superior sagittal sinus transected, series of pictures", "value": "Complete hemostasis was achieved"},
      {"measurement": "average duration from start of application of peptide solution to completion of hemostasis", "setting": "[1]; adult rats, transection of the veins leading to the sinus", "value": 8.3, "unit": "s"},
      {"measurement": "time to complete hemostasis after application of the peptide solution", "setting": "[1]; rats, 20 μl of a 1% peptide solution at the site of the sinus branch transection, all cases", "value": "≤ 10", "unit": "s"},
      {"measurement": "time to complete hemostasis after application of the peptide solution", "setting": "[2]", "value": "≤ 10", "unit": "s"},
      {"measurement": "hemostasis after iced saline was removed and the peptide solution was applied", "setting": "superior sagittal sinus", "value": "complete hemostasis almost immediately"},
      {"measurement": "time to hemostasis", "setting": "femoral artery; 20 μl of a 1% solution at the site of transection, twelve rats, all treated cases", "value": "less than 10 seconds"},
      {"measurement": "time at which complete hemostasis was observed", "setting": "femoral artery; adult rat, series of pictures", "value": "about five"},
      {"measurement": "hemostasis after replacement of the cold saline with the peptide solution", "setting": "femoral artery; control animals that bled until 110 seconds", "value": "almost immediate achievement of complete hemostasis"},
      {"measurement": "time complete hemostasis was maintained", "setting": "femoral artery; duration of the test", "value": 1, "unit": "h"},
      {"measurement": "time until all bleeding had stopped", "setting": "spinotrapezius muscles", "value": "≤ 10", "unit": "s"},
      {"measurement": "hemostasis in limb wounds", "setting": "[3]; between 1% to 100% peptide applied", "value": "hemostasis was achieved in all cases"},
      {"measurement": "concentration of material needed to bring about hemostasis", "setting": "[3]; when an artery or vein was transected", "value": "≥ 2", "unit": "%"},
      {"measurement": "time until all bleeding stopped", "setting": "[4]", "value": "≤ 10", "unit": "s"},
      {"measurement": "hemostasis", "setting": "[5]; 1% solution", "value": "partial cessation of bleeding"},
      {"measurement": "hemostasis", "setting": "[5]; 2% peptide solution", "value": "complete hemostasis was also achieved"},
      {"measurement": "hemostasis", "setting": "[5]; 3% peptide solution", "value": "complete hemostasis was also achieved"},
      {"measurement": "bleeding ten minutes later", "setting": "[5]; 4% peptide solution", "value": "still no bleeding"},
      {"measurement": "bleeding under physical stress (lower part of lobe pulled downward)", "setting": "[5]; 4% peptide solution", "value": "did not bleed"},
      {"measurement": "hemostasis after excess peptide structure was wiped away", "setting": "[5]; 30 seconds after treatment", "value": "hemostasis was maintained"},
      {"measurement": "hemostasis at the margin of the liver after the peptide was removed", "setting": "[6]; 2% peptide, removed one minute later", "value": "complete hemostasis was achieved"},
      {"measurement": "time until bleeding stopped", "setting": "[6]; topical application of 2% peptide to the margin", "value": "less than 10 seconds"},
      {"measurement": "adhesions on the upper or lower surface of the liver", "setting": "liver", "value": "no adhesions"},
      {"measurement": "progression of the intestinal wall inversion", "setting": "[7]; control cut treated 15 minutes after the injury", "value": "stopped the progression"},
      {"measurement": "leakage from the injury site", "setting": "[7]; control cut treated with peptide solution 15 minutes after the injury", "value": "stopped all leakage"},
      {"measurement": "leakage of gastric fluids from the intestine", "setting": "[7]; site treated with 2% peptide solution", "value": "all leakage of gastric fluids from the intestine stopped"},
      {"measurement": "shrinkage of the wound site versus untreated", "setting": "[8]; all cases", "value": "happened faster"},
      {"measurement": "healing of treated wounds versus no treatment", "setting": "[8]; single application, contraction of the wound site as early as day 1", "value": "healed much faster"},
      {"measurement": "speeding of healing", "setting": "[8]; single application, in some cases", "value": "≤ 5", "unit": "days"}
    ]}
  ]
}
